Source: patent US20250353816A1, “QUINOLINES AS MODULATORS OF POLRMT” (Pretzel Therapeutics, Inc., priority 2024, published 2025)
pIC50: −log10 of the molar value.

Molecular target: POLRMT (Homo sapiens (Human), UniProt O00411)
Assay: homogeneous TR-FRET assay of mitochondrial transcription (inhibition of POLRMT)
Assay type: biochemical
Conditions: 7.5 nM POLRMT, 15 nM TFB2M, 30 nM TFAM, 60 minutes at 37° C.
Experimental: The inhibitory activity of the compounds of the present invention against POLRMT were determined by assays based on Bergbrede, T., et al., “An adaptable high-throughput technology enabling the identification of specific transcription modulators,” SLAC Discov., 22, 378-386 (2017).
The ability of some compounds of the present invention to inhibit POLRMT were determined in a homogeneous TR-FRET Assay using high-throughput screening in a 384-well plate format. This method is used to monitor the activity of mitochondrial transcription through measurement of its product, a 407 bp long RNA transcript. Detection of the product is facilitated by hybridization of two DNA-oligonucleotide probes to specific and adjacent sequences within the RNA product sequence. Upon annealing of the probes, two fluorophores are coupled directly to an acceptor nucleotide probe (ATTO647, 5′), or introduced via a coupled streptavidin with a biotinylated donor nucleotide probe (Europium cryptate) that is brought into sufficient proximity to serve as a fluorescence-donor-acceptor pair. Thus, a FRET signal at 665 nm is generated upon excitation at 340 nm.
Proteins used as transcription factors (POLRMT: NP_005026.3, TFAM: NP_003192.1, TFB2M: NP_071761.1) are diluted from their stocks to working concentrations of 1 μM, 20 μM and 4 μM respectively, in a dilution buffer containing 20 mM Tris-HCl (pH 8.0), 200 mM NaCl, 10% (v/v) glycerol, 1 mM Dithiothreitol (DTT), 0.5 mM EDTA.
DNA template is a pUC18 plasmid with the mitochondrial light strand promotor sequence (1-477) cloned between HindIII and BamHI sites. The DNA template is restriction linearized proximal to the promotor 3′-end (pUC-LSP).
The reaction mixture (10 uL) containing 7.5 nM POLRMT, 15 nM of TFB2M, 30 nM of TFAM, 0.5 nM of DNA template and 500 μM nucleotide triphosphate mix (NTPs) in a reaction buffer (containing 10 mM Tris-HCl (pH 7.5), 10 mM MgCl2, 40 mM NaCl, 10 mM DTT, 0.005% (w/v) Tween-20, 160 units/ml Rnase inhibitor and 0.1 mg/mL BSA) are dispensed to compounds in microplates, using a Thermo Multidrop® dispenser, and incubated at 37° C. in a VWR INCU-Line incubator for 60 minutes after mixing. No nucleotide triphosphate mix is added to negative control samples. Microplates with compounds to be tested in the assay are prepared from 10 mM compound stocks in 100% DMSO, equal amounts of DMSO without any compound are added to positive control and negative control samples.
During the incubation, a mix of the detection reagents is prepared in a buffer such that the enzymatic reaction is terminated due to chelating of Mg-ions and increased ionic strength, containing 50 mM Tris-HCl (pH 7.5), 700 mM NaCl, 20 mM EDTA, and 0.01% (w/v) Tween-20. Europium-streptavidin is pre-incubated with a 200-fold molar excess of a random sequence oligonucleotide to block unspecific binding of oligo, for two hours at ambient temperature in the dark. Afterwards, the blocked Europium-streptavidin is kept on ice until use.
At the end of the enzymatic reaction time, 5 μL detection oligo mix in the detection buffer is added, and assay plates are mixed and kept at ambient temperature for one hour, protected from light. The concentration of the Acceptor nucleotide oligo (e.g., ATTO647N-5′-[…]-3′ (SEQ ID NO: 1)) and Donor nucleotide oligo (e.g., bio-5′-AACACATCTCT(-bio)GCCAAACCCCA-bio-3′ (SEQ ID NO: 2)) in each assay well is 1 nM, and 3 nM, respectively.
After incubation with oligo mix, 5 μL of pre-blocked Europium-streptavidin reagent is dispensed to each assay well, assay plates are again mixed and kept at ambient temperature for one hour, protected from light.
The generated signal is measured with BMG Pherastar microtiter plate reader with a TRF light unit, using excitation at 340 nm, an integration time of 200 μs, and a delay time of […], before detection at 620 nm and 665 nm. The ratio of donor- and acceptor-fluorescence is used as a measure of the generated transcript product (i.e. enzymatic activity).

Sequence of POLRMT (O00411 42-1230): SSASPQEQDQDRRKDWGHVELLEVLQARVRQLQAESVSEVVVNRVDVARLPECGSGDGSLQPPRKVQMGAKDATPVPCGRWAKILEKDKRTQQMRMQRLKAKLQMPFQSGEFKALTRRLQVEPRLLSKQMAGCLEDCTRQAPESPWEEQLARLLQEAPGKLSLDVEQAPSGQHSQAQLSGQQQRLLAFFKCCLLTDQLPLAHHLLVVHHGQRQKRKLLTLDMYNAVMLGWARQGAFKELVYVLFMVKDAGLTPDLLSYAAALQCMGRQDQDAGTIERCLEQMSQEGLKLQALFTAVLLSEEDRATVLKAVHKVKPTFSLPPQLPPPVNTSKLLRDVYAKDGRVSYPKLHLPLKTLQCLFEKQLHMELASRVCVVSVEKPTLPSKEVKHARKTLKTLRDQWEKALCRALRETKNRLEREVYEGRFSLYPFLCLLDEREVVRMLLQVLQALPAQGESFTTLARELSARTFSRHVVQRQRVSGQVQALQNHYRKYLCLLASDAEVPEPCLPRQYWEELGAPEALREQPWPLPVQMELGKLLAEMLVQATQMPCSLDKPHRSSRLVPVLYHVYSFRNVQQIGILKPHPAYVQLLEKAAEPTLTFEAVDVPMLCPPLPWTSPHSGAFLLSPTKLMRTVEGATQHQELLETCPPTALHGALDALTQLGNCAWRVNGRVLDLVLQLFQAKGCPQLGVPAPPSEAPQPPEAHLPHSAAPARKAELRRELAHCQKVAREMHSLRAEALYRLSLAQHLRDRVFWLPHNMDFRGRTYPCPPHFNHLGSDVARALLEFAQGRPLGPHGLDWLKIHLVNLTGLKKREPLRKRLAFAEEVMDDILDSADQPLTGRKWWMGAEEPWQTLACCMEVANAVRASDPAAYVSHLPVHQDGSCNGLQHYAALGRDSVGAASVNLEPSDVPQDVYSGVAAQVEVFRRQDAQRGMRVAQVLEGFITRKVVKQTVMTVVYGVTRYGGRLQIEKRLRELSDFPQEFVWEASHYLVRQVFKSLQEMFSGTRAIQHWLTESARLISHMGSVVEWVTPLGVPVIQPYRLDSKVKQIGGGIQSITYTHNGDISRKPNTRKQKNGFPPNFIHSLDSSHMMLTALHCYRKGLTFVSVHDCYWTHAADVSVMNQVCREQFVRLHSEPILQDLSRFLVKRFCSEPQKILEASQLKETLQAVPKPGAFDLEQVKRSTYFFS

Row | Compound | pIC50
1 | Cc1ccccc1-c1ccnc2cc(CC(C)C(=O)N3CCCCC3)ccc12 (single isomer, unassigned) [Example 34, 2-methyl-1-(piperidin-1-yl)-3-(4-(o-tolyl)quinolin-7-yl)propan-1-one] | 5.70
2 | Cc1ccccc1-c1ccnc2cc(CC(C)C(=O)N3CCCCC3)ccc12 (single isomer, unassigned) [Example 35, 2-methyl-1-(piperidin-1-yl)-3-(4-(o-tolyl)quinolin-7-yl)propan-1-one] | 4.15
3 | Cc1ccccc1-c1ccnc2cc(C(C)CC(=O)N(C)C)ccc12 (single isomer, unassigned) [Example 37, N,N-dimethyl-3-(4-(o-tolyl)quinolin-7-yl)butanamide] | 4.10
4 | Cc1ccccc1-c1ccnc2cc(C(C)CC(=O)N(C)C)ccc12 (single isomer, unassigned) [Example 38, N,N-dimethyl-3-(4-(o-tolyl)quinolin-7-yl)butanamide] | 4.43
5 | Cc1ccccc1-c1ccnc2cc(NC(C)C(=O)N(C)C)ccc12 (single isomer, unassigned) [Example 48, N,N-dimethyl-2-((4-(o-tolyl)quinolin-7-yl)amino)propanamide] | < 4.00
6 | Cc1ccccc1-c1ccnc2cc(NC(C)C(=O)N(C)C)ccc12 (single isomer, unassigned) [Example 49, N,N-dimethyl-2-((4-(o-tolyl)quinolin-7-yl)amino)propanamide] | 5.00
7 | Cc1ccccc1-c1ccnc2cc(NC(C)C(=O)N3CCOCC3)ccc12 (single isomer, unassigned) [Example 50, 1-morpholino-2-((4-(o-tolyl)quinolin-7-yl)amino)propan-1-one] | 5.70
8 | Cc1ccccc1-c1ccnc2cc(NC(C)C(=O)N3CCOCC3)ccc12 (single isomer, unassigned) [Example 51, 1-morpholino-2-((4-(o-tolyl)quinolin-7-yl)amino)propan-1-one] | < 4.00
9 | Cc1ccccc1-c1ccnc2cc(NC(C)C(=O)N3CCCCC3)ccc12 (single isomer, unassigned) [Example 52, 1-(piperidin-1-yl)-2-((4-(o-tolyl)quinolin-7-yl)amino)propan-1-one] | < 4.00
10 | Cc1ccccc1-c1ccnc2cc(NC(C)C(=O)N3CCCCC3)ccc12 (single isomer, unassigned) [Example 53, 1-(piperidin-1-yl)-2-((4-(o-tolyl)quinolin-7-yl)amino)propan-1-one] | 5.52
11 | COC(=O)c1ccc2c(-c3ccccc3C)ccnc2c1 [Example 1, methyl 4-(o-tolyl)quinoline-7-carboxylate] | 5.52
12 | Cc1ccccc1-c1ccnc2cc(C(N)=O)ccc12 [Example 2, 4-(o-tolyl)quinoline-7-carboxamide] | < 4.00
13 | CNC(=O)c1ccc2c(-c3ccccc3C)ccnc2c1 [Example 3, N-methyl-4-(o-tolyl)quinoline-7-carboxamide] | 4.59
14 | Cc1ccccc1-c1ccnc2cc(C(=O)N(C)C)ccc12 [Example 4, N,N-dimethyl-4-(o-tolyl)quinoline-7-carboxamide] | < 4.00
15 | Cc1ccccc1-c1ccnc2cc(C(=O)N(C)Cc3ccccc3)ccc12 [Example 5, N-benzyl-N-methyl-4-(o-tolyl)quinoline-7-carboxamide] | < 4.00
16 | Cc1ccccc1-c1ccnc2cc(C(=O)NCc3ccccc3)ccc12 [Example 6, N-benzyl-4-(o-tolyl)quinoline-7-carboxamide] | 4.05
17 | Cc1ccccc1-c1ccnc2cc(C(=O)N3CCOCC3)ccc12 [Example 7, morpholino-[4-(o-tolyl)-7-quinolyl]methanone] | < 4.00
18 | Cc1ccccc1-c1ccnc2cc(C(=O)N3CCN(C)CC3)ccc12 [Example 8, (4-methylpiperazin-1-yl)-[4-(o-tolyl)-7-quinolyl]methanone] | < 4.00
19 | CC(=O)N1CCN(C(=O)c2ccc3c(-c4ccccc4C)ccnc3c2)CC1 [Example 9, 1-(4-(4-(o-tolyl)quinoline-7-carbonyl)piperazin-1-yl)ethan-1-one] | < 4.00

Row | Compound | pIC50
20 | Cc1ccccc1-c1ccnc2cc(CO)ccc12 [Example 10, (4-(o-tolyl)quinolin-7-yl)methanol] | 4.30
21 | CC(=O)Nc1ccc2c(-c3ccccc3C)ccnc2c1 [Example 11, N-(4-(o-tolyl)quinolin-7-yl)acetamide] | 5.00
22 | Cc1ccccc1-c1ccnc2cc(CNC(=O)OC(C)(C)C)ccc12 [Example 12, tert-butyl ((4-(o-tolyl)quinolin-7-yl)methyl)carbamate] | 4.82
23 | Cc1ccccc1-c1ccnc2cc(CNC(=O)C3CCCC3)ccc12 [Example 13, N-((4-(o-tolyl)quinolin-7-yl)methyl)cyclopentanecarboxamide] | 4.54
24 | Cc1ccccc1-c1ccnc2cc(CNS(=O)(=O)c3ccccc3)ccc12 [Example 14, N-((4-(o-tolyl)quinolin-7-yl)methyl)benzenesulfonamide] | 4.17
25 | COC(=O)NCc1ccc2c(-c3ccccc3C)ccnc2c1 [Example 15, methyl ((4-(o-tolyl)quinolin-7-yl)methyl)carbamate] | 4.23
26 | Cc1ccccc1-c1ccnc2cc(N(C)C)ccc12 [Example 16, N,N-dimethyl-4-(o-tolyl)quinolin-7-amine] | 5.15
27 | Cc1ccccc1-c1ccnc2cc(CCO)ccc12 [Example 17, 2-(4-(o-tolyl)quinolin-7-yl)ethan-1-ol] | 5.00
28 | Cc1ccccc1-c1ccnc2cc(C(C)O)ccc12 (centres unmarked) [Example 18, 1-(4-(o-tolyl)quinolin-7-yl)ethan-1-ol] | 4.44
29 | COCc1ccc2c(-c3ccccc3C)ccnc2c1 [Example 19, 7-(methoxymethyl)-4-(o-tolyl)quinoline] | 5.30
30 | Cc1ccccc1-c1ccnc2cc(CN3CCOCC3)ccc12 [Example 20, 4-((4-(o-tolyl)quinolin-7-yl)methyl)morpholine] | < 4.00
31 | CC(=O)N1CCN(Cc2ccc3c(-c4ccccc4C)ccnc3c2)CC1 [Example 21, 1-(4-((4-(o-tolyl)quinolin-7-yl)methyl)piperazin-1-yl)ethan-1-one] | < 4.00
32 | Cc1ccccc1-c1ccnc2cc(CNS(C)(=O)=O)ccc12 [Example 22, N-((4-(o-tolyl)quinolin-7-yl)methyl)methanesulfonamide] | 4.14
33 | Cc1ccccc1-c1ccnc2cc(CN(C)S(=O)(=O)c3ccccc3)ccc12 [Example 23, N-methyl-N-((4-(o-tolyl)quinolin-7-yl)methyl)benzenesulfonamide] | < 4.00
34 | Cc1ccccc1-c1ccnc2cc(CN(C)C(=O)C3CCCC3)ccc12 [Example 24, N-methyl-N-((4-(o-tolyl)quinolin-7-yl)methyl)cyclopentanecarboxamide] | 5.00
35 | Cc1ccccc1-c1ccnc2cc(CN3CCCC3=O)ccc12 [Example 25] | < 4.00
36 | Cc1ccccc1-c1ccnc2cc(CN3CCCC3)ccc12 [Example 26, 7-(pyrrolidin-1-ylmethyl)-4-(o-tolyl)quinoline] | < 4.00
37 | COC(C)c1ccc2c(-c3ccccc3C)ccnc2c1 (centres unmarked) [Example 27, 7-(1-methoxyethyl)-4-(o-tolyl)quinoline] | 5.10
38 | Cc1ccccc1-c1ccnc2cc(CN3CCN(C)CC3)ccc12 [Example 28, 7-((4-methylpiperazin-1-yl)methyl)-4-(o-tolyl)quinoline] | < 4.00
